In patent publication US20250002954A1, “Novel Compound, Use Thereof, and Method for Producing Same, and Compound-Containing Composition, Method for Producing 4-Trehalosamine, and Microorganism” (Microbial Chemistry Research Foundation, priority 2021, published 2025):

Assays:
[1] = tested on: Mycobacterium smegmatis mc^2 (ATCC 700084); assay: Staining of mycobacterium with IMCTA-fluorescein, IMCTA-biotin or IMCTA-azide; type: cell-based
[2] = tested on: Mycobacterium smegmatis bacterial cells; assay: TLC analysis of lipid components of IMCTA-fluorescein stained cells; type: cell-based; settings: bacterial cells which had ingested IMCTA-fluorescein
Method: TLC analysis was performed on the lipid components of bacterial cell suspension of Mycobacterium smegmatis bacterial cells stained with IMCTA-fluorescein in test example 11-1 or bacterial cell suspension of Mycobacterium smegmatis bacterial cells treated with DMSO.
The TLC analysis was performed based on the method of Kai et al. (M. Kai et al., FEBS Lett 2007, 581, p. 3345-3350).
The bacterial cell suspension of Mycobacterium smegmatis bacterial cells stained with IMCTA-fluorescein in test example 11-1 or the bacterial cell suspension of Mycobacterium smegmatis bacterial cells treated with DMSO was centrifuged at 21,300×g for 1 minute. […]
In the TLC analysis, a Silica gel 60 TLC plate (manufactured by Merck) was used and the solvent was developed with chloroform/methanol/acetone/acetonitrile (90:10:6:1, v/v). The lipid as a whole was detected with phosphomolybdic acid solution similar to that in test example 1 and fluorescence was detected with a UV trans-illuminator (NTFM-20, manufactured by Analytik Jena US LLC).
The phosphomolybdic acid staining patterns for the entire component are shown in FIG. 26A and the fluorescence detection patterns are shown in FIG. 26B. […] In FIG. 26B, the arrows indicate components for which fluorescence is seen only in the IMCTA-fluorescein treated sample.

O=C(N[C@@H]1C(CO)O[C@H](O[C@H]2OC(CO)[C@@H](O)C(O)C2O)C(O)C1O)c1ccc2c(c1)C(=O)OC21c2ccc(O)cc2Oc2cc(O)ccc21 (stereo partly shown) [IMCTA-fluorescein]
ingestion into bacterial cells and fluorescence (staining) ([1]; 10 μg/mL IMCTA-fluorescein, 30 μg/mL IMCTA-biotin, 10 μg/mL IMCTA-azide, 37° C., 8 hours): ingested into Mycobacterium smegmatis bacterial cells and emitted fluorescence
ingestion in the presence of sucrose (blocking) ([1]; sucrose 1% or 3%): no significant inhibition
ingestion in the presence of trehalose (blocking) ([1]; trehalose 1% or 3%): inhibition was observed in the presence of 1% trehalose
fluorescent lipids detected by TLC [2]: two fluorescent lipids were detected
